Experimental findings from patent publication US20250101041A1, “POSITIVE ALLOSTERIC MODULATORS OF THE MUSCARINIC ACETYLCHOLINE RECEPTOR M4” (Vanderbilt University, priority 2022, published 2025) are described below.

This assay deals with T1, human mAChR M4 (Homo sapiens, UniProt P08173).
T1 construct: expressed in transfected cells; host or cells: CHO-K1 (American Type Culture Collection), stably expressing hM4 and Gqi5
T1 sequence (P08173 1-479): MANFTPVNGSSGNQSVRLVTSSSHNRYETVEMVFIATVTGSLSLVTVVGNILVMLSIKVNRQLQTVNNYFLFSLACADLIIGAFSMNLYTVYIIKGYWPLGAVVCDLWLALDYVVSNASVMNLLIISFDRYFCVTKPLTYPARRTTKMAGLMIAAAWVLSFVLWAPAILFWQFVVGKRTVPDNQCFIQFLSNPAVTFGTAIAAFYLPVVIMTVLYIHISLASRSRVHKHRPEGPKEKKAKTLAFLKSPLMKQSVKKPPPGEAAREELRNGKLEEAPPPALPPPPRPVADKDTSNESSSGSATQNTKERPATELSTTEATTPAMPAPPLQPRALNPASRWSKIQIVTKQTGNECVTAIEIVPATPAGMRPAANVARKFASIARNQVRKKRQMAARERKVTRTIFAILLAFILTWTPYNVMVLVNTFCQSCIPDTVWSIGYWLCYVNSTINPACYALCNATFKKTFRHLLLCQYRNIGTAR
The experiment in a line: mAChR M4 cell-based functional assay: calcium mobilization (Fluo-4, FDSS), potentiation of EC20 acetylcholine response in hM4-Gqi5 CHO-K1 cells. The following applies: human M4; for Emax at 30 µM: CHO-K1, % ACh maximum at 30 μM; for EC50: potentiation of EC20 acetylcholine response, calcium mobilization. In a few lines:
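Readout is the fluorescence-ratio rise at 1 Hz on FDSS, with PAM activity taken as concentration-dependent enhancement of the EC20 acetylcholine response, fitted four-parameter for EC50/Emax. hM4-Gqi5 CHO-K1 cells carried Fluo-4 AM dye; test compounds (11 points, 1:3) preceded EC20 acetylcholine additions at 144 s and 230 s.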

On to `Cc1ccc(-c2cnc3c(c2)CN(c2nn4c(=O)cc(C(F)F)nc4c(C)c2C)CC3)c(C)c1` [Compound 1-164, 2-(difluoromethyl)-7-(3-(2,4-dimethylphenyl)-7,8-dihydro-1,6-naphthyridin-6(5H)-yl)-8,9-dimethyl-4H-pyrimido[1,2-b]pyridazin-4-one], for which the Emax at 30 µM was determined as 69% and the EC50 was 640 nM.

As for `Cc1c(N2CCc3ncc(-c4cnn(-c5ccccc5F)c4)cc3C2)nn2c(=O)cc(C(F)F)nc2c1C` [Compound 1-165, 2-(difluoromethyl)-7-(3-(1-(2-fluorophenyl)-1H-pyrazol-4-yl)-7,8-dihydro-1,6-naphthyridin-6(5H)-yl)-8,9-dimethyl-4H-pyrimido[1,2-b]pyridazin-4-one], the Emax at 30 µM worked out at 47%.

Turning to `CCn1cc(-c2cnc3c(c2)CN(c2nn4c(=O)cc(C(F)F)nc4c(C)c2C)CC3)cn1` [Compound 1-166, 2-(difluoromethyl)-7-(3-(1-ethyl-1H-pyrazol-4-yl)-7,8-dihydro-1,6-naphthyridin-6(5H)-yl)-8,9-dimethyl-4H-pyrimido[1,2-b]pyridazin-4-one], the maximum response (Emax) at 30 µM amounted to 86% and the EC50 worked out at 283 nM.

In the case of `COc1cncc(-c2cnc3c(c2)CN(c2nn4c(=O)cc(C(F)F)nc4c(C)c2C)CC3)c1` [Compound 1-167, 2-(difluoromethyl)-7-(3-(5-methoxypyridin-3-yl)-7,8-dihydro-1,6-naphthyridin-6(5H)-yl)-8,9-dimethyl-4H-pyrimido[1,2-b]pyridazin-4-one], the Emax at 30 µM turned out to be 80% and the EC50 was found to be 353 nM.

For the molecule `COc1ncc(-c2cnc3c(c2)CN(c2nn4c(=O)cc(C(F)F)nc4c(C)c2C)CC3)cc1Cl` [Compound 1-168, 7-(3-(5-chloro-6-methoxypyridin-3-yl)-7,8-dihydro-1,6-naphthyridin-6(5H)-yl)-2-(difluoromethyl)-8,9-dimethyl-4H-pyrimido[1,2-b]pyridazin-4-one], the Emax at 30 µM was determined as 72% and the EC50 is 2310 nM.

As for `Cc1ccc(-c2cnc3c(c2)CN(c2nn4c(=O)cc(C(F)F)nc4c(C)c2C)CC3)cc1` [Compound 1-169, 2-(difluoromethyl)-8,9-dimethyl-7-(3-(p-tolyl)-7,8-dihydro-1,6-naphthyridin-6(5H)-yl)-4H-pyrimido[1,2-b]pyridazin-4-one], the Emax at 30 µM was 89% and the EC50 was determined as 883 nM.

In the case of `COc1ccc(-c2cnc3c(c2)CN(c2nn4c(=O)cc(C(F)F)nc4c(C)c2C)CC3)cn1` [Compound 1-170, 2-(difluoromethyl)-7-(3-(6-methoxypyridin-3-yl)-7,8-dihydro-1,6-naphthyridin-6(5H)-yl)-8,9-dimethyl-4H-pyrimido[1,2-b]pyridazin-4-one], the Emax at 30 µM was 95% and the EC50 amounted to 185 nM.

`Cc1ccc(F)cc1-c1cnc2c(c1)CN(c1nn3c(=O)cc(C(F)F)nc3c(C)c1C)CC2` [Compound 1-171, 2-(difluoromethyl)-7-(3-(5-fluoro-2-methylphenyl)-7,8-dihydro-1,6-naphthyridin-6(5H)-yl)-8,9-dimethyl-4H-pyrimido[1,2-b]pyridazin-4-one]: the Emax at 30 µM is 91% and the EC50 amounted to 429 nM.

Turning to `Cc1c(N2CCc3ncc(-c4cnn(C(F)F)c4)cc3C2)nn2c(=O)cc(C(F)F)nc2c1C` [Compound 1-172, 2-(difluoromethyl)-7-(3-(1-(difluoromethyl)-1H-pyrazol-4-yl)-7,8-dihydro-1,6-naphthyridin-6(5H)-yl)-8,9-dimethyl-4H-pyrimido[1,2-b]pyridazin-4-one], the Emax at 30 µM worked out at 85% and the EC50 came out at 114 nM.

With `Cc1c(N2CCc3ncc(-c4cnn(CCN5CCOCC5)c4)cc3C2)nn2c(=O)cc(C(F)F)nc2c1C` [Compound 1-173, 2-(difluoromethyl)-8,9-dimethyl-7-(3-(1-(2-morpholinoethyl)-1H-pyrazol-4-yl)-7,8-dihydro-1,6-naphthyridin-6(5H)-yl)-4H-pyrimido[1,2-b]pyridazin-4-one], the Emax at 30 µM is 81% and the EC50 was found to be 338 nM.

Regarding `Cc1c(N2CCc3ncc(-c4ccc(Cl)nc4Cl)cc3C2)nn2c(=O)cc(C(F)F)nc2c1C` [Compound 1-174, 7-(3-(2,6-dichloropyridin-3-yl)-7,8-dihydro-1,6-naphthyridin-6(5H)-yl)-2-(difluoromethyl)-8,9-dimethyl-4H-pyrimido[1,2-b]pyridazin-4-one], the Emax at 30 µM was found to be 82% and the EC50 amounted to 450 nM.

Take `Cc1cc(=O)n2nc(N3CCc4ncc(-c5cnn(-c6ccccn6)c5)cc4C3)c(C)c(C)c2n1` [Compound 1-175, 2,8,9-trimethyl-7-(3-(1-(pyridin-2-yl)-1H-pyrazol-4-yl)-7,8-dihydro-1,6-naphthyridin-6(5H)-yl)-4H-pyrimido[1,2-b]pyridazin-4-one]: the Emax at 30 µM was determined as 61% and the EC50 was 4660 nM.

In the case of `Cc1cc(=O)n2nc(N3CCc4ncc(-c5ccnn5C5COC5)cc4C3)c(C)c(C)c2n1` [Compound 1-176, 2,8,9-trimethyl-7-(3-(1-(oxetan-3-yl)-1H-pyrazol-5-yl)-7,8-dihydro-1,6-naphthyridin-6(5H)-yl)-4H-pyrimido[1,2-b]pyridazin-4-one], the Emax at 30 µM is 74% and the EC50 was determined as 4840 nM.

With `Cc1cc(=O)n2nc(N3CCc4ncc(-c5cnn(CCN(C)C)c5)cc4C3)c(C)c(C)c2n1` [Compound 1-177, 7-(3-(1-(2-(dimethylamino)ethyl)-1H-pyrazol-4-yl)-7,8-dihydro-1,6-naphthyridin-6(5H)-yl)-2,8,9-trimethyl-4H-pyrimido[1,2-b]pyridazin-4-one], the Emax at 30 µM amounted to 84% and the EC50 stood at 1420 nM.

Consider `Cc1cc(=O)n2nc(N3CCc4ncc(-c5cnn(CCN6CCOCC6)c5)cc4C3)c(C)c(C)c2n1` [Compound 1-178, 2,8,9-trimethyl-7-(3-(1-(2-morpholinoethyl)-1H-pyrazol-4-yl)-7,8-dihydro-1,6-naphthyridin-6(5H)-yl)-4H-pyrimido[1,2-b]pyridazin-4-one], for which the Emax at 30 µM stood at 74% and the EC50 is 2510 nM.

`Cc1cc(=O)n2nc(N3CCc4ncc(-c5cnn(C6COC6)c5)cc4C3)c(C)c(C)c2n1` [Compound 1-179, 2,8,9-trimethyl-7-(3-(1-(oxetan-3-yl)-1H-pyrazol-4-yl)-7,8-dihydro-1,6-naphthyridin-6(5H)-yl)-4H-pyrimido[1,2-b]pyridazin-4-one]: the maximal response (Emax) at 30 µM is 85% and the EC50 was 805 nM.

Take `Cc1cc(=O)n2nc(N3CCc4ncc(-c5cnn(-c6ccccc6F)c5)cc4C3)c(C)c(C)c2n1` [Compound 1-180, 7-(3-(1-(2-fluorophenyl)-1H-pyrazol-4-yl)-7,8-dihydro-1,6-naphthyridin-6(5H)-yl)-2,8,9-trimethyl-4H-pyrimido[1,2-b]pyridazin-4-one]: the Emax at 30 µM was 63% and the EC50 was 2470 nM.

For the molecule `Cc1cc(=O)n2nc(N3CCc4ncc(-c5cnn6ccccc56)cc4C3)c(C)c(C)c2n1` [Compound 1-181, 2,8,9-trimethyl-7-(3-(pyrazolo[1,5-a]pyridin-3-yl)-7,8-dihydro-1,6-naphthyridin-6(5H)-yl)-4H-pyrimido[1,2-b]pyridazin-4-one], the Emax at 30 µM is 95% and the EC50 is 648 nM.

On to `Cc1cc(=O)n2nc(N3CCc4ncc(-c5cnn(C6CCOCC6)c5)cc4C3)c(C)c(C)c2n1` [Compound 1-182, 2,8,9-trimethyl-7-(3-(1-(tetrahydro-2H-pyran-4-yl)-1H-pyrazol-4-yl)-7,8-dihydro-1,6-naphthyridin-6(5H)-yl)-4H-pyrimido[1,2-b]pyridazin-4-one], for which the Emax at 30 µM came to 66% and the EC50 stood at 1410 nM.

Consider `Cc1cc(=O)n2nc(N3CCc4ncc(-c5cnn(C6CC6)c5)cc4C3)c(C)c(C)c2n1` [Compound 1-183, 7-(3-(1-cyclopropyl-1H-pyrazol-4-yl)-7,8-dihydro-1,6-naphthyridin-6(5H)-yl)-2,8,9-trimethyl-4H-pyrimido[1,2-b]pyridazin-4-one], for which the Emax at 30 µM was 79% and the EC50 was 582 nM.

As to `Cc1cc(=O)n2nc(N3CCc4ncc(-c5cnn(CC(F)(F)F)c5)cc4C3)c(C)c(C)c2n1` [Compound 1-184, 2,8,9-trimethyl-7-(3-(1-(2,2,2-trifluoroethyl)-1H-pyrazol-4-yl)-7,8-dihydro-1,6-naphthyridin-6(5H)-yl)-4H-pyrimido[1,2-b]pyridazin-4-one], the Emax at 30 µM was 80% and the EC50 was found to be 1260 nM.

`Cc1cc(=O)n2nc(N3CCc4ncc(-c5cnn(C)c5C)cc4C3)c(C)c(C)c2n1` [Compound 1-185, 7-(3-(1,5-dimethyl-1H-pyrazol-4-yl)-7,8-dihydro-1,6-naphthyridin-6(5H)-yl)-2,8,9-trimethyl-4H-pyrimido[1,2-b]pyridazin-4-one]: the Emax at 30 µM was 86% and the EC50 was 752 nM.

Take `COc1ccc(-c2cnc3c(c2)CN(c2nn4c(=O)cc(C)nc4c(C)c2C)CC3)cn1` [Compound 1-186, 7-(3-(6-methoxypyridin-3-yl)-7,8-dihydro-1,6-naphthyridin-6(5H)-yl)-2,8,9-trimethyl-4H-pyrimido[1,2-b]pyridazin-4-one]: the Emax at 30 µM is 84% and the EC50 came out at 460 nM.

As a reminder, the Emax is the size of the effect at its maximum, as opposed to the concentration needed. One may read the EC50 as the concentration needed to bring the measured effect to its halfway point.
